Experimental data: patent US11090326B2, “Fixed-dose pharmaceutical composition comprising rifabutin, clarithromycin, and clofazimine” (RedHill Biopharma Ltd., priority 2008, dated 2021)
Where two headings read alike, the source gives them in different places. Blank lines part the entries; values can stand above or below the compound they belong to.

Experiments:
[1] = single dose of 250 mg of clarithromycin; cited from earlier work
[2] = Literature Cmax of clarithromycin (Chu et al., 1993); details: in vivo; clarithromycin 190 mg dose; read-out: Cmax, literature value scaled to dose of the study
Method: The results obtained from dry and PEG formulations of triple combination capsules were approximately proportional to literature findings. Chu et al. (1993) reported that the rise of clarithromycin peak concentrations occur non-linearly to dose which might explain any slight disproportionality between the literature values and those obtained from triple combination capsules dry and PEG formulations.
Clarithromycin—500 mg (four 125-mg capsules, Abbott Laboratories) every 12 hours for 5 doses.

[3] = Bioavailability study: single-dose plasma pharmacokinetics of 2 test formulations of triple combination capsules
Description: The objectives of this study were to 1) determine and compare the rate and extent of absorption and 2) to assess the safety and tolerability of 2 test formulations of a combination product of clarithromycin, rifabutin and clofazimine (herein after “triple combination”).
This study followed a randomized, open-label, single-dose, 1-way 2-arm parallel design in 24 normal, healthy, non-smoking male and female subjects.
Subjects were admitted to the clinic the day before dosing, and remained until the 24.00 hour post-dose blood draw, at which time they were allowed to leave the clinic and after which they were required to return for subsequent blood draws.
Following an overnight fast of at least 10 hours, subjects began a high fat content meal 30 minutes prior to drug administration. Subjects consumed this meal in 30 minutes or less; however, the study drug was administered 30 minutes after the start of the meal. The FDA standard high-fat content breakfast consisted of the following: 2 eggs fried in butter, 2 strips of bacon, 2 slices of toast with butter, 4 ounces of hash brown potatoes and 8 fluid ounces (about.240 mL) of whole milk.
Following an overnight fast of at least 10 hours, and 30 minutes after the start of a high fat content meal, subjects received one of the following treatments at 0.00 hour on Day 1 of the study period according to a randomization scheme:
The medications were administered orally. The drugs were given 1 or more capsules at a time. All capsules were ingested within 1 minute.
During the study period, 19 blood samples (1×4 mL and 1×6 mL tube for each sampling time point) were collected from each subject by direct venipuncture or by Vasofix® intravenous catheter using pre-cooled, labelled blood collection tubes containing potassium ethylenediaminetetraacetic acid (EDTA) as the anticoagulant. Blood samples were collected at 0.00 (pre-dose), 0.25, 0.50, 0.75, 1.00, 1.50, 2.00, 2.50, 3.00, 4.00, 6.00, 8.00, 10.00, 12.00, 16.00, 24.00, 48.00, 60.00, and 96.00 hours post-dose. The clock times of all blood draws for plasma concentration analyses were recorded.
The 6 mL tubes were used to measure clarithromycin and 14-hydroxyclarithromycin. The 4 mL tubes were used to measure rifabutin, 25-O-desacetylrifabutin and clofazimine.
(§1) The blood samples were stored in an ice bath before centrifugation and were centrifuged as soon as possible under refrigerated conditions (at 4° C.) at 3500 rpm for 7 minutes. The collected plasma from each blood collection tube was aliquotted into pre-cooled labelled polypropylene tubes. A minimum of 1.5 mL of plasma was transferred from the 6 mL tubes into the first polypropylene tube, and all remaining plasma, if any, was transferred into a second polypropylene tube. The samples were kept in an ice bath, and flash frozen in an upright position, then stored at −70±10° C. until assayed.
as §1, with “In another procedure, the blood” for “The blood”, “of 0.8” for “of 1.5”, “the 4 mL,” for “the 6 mL”
Upon completion of the clinical portion of the study, all samples were analysed for clarithromycin and 14-hydroxyclarithromycin in the plasma samples or for rifabutin, 25-O-desacetylrifabutin and clofazimine in the plasma samples.
Clarithromycin and 14-hydroxyclarithromycin—Information about these analytes was obtained using routine methods known in the art.

[4] = single 300 mg dose of rifabutin, fasting; 10 HIV patients without wasting syndrome (Gatti et al., 1998); cited from earlier work
[5] = clinical; details: human, in vivo, 90 mg
Description: Gatti et al. (1998) conducted a comparative study of rifabutin absorption and disposition in HIV-infected patients with or without wasting syndrome.

[6] = Literature Cmax of clofazimine (Nix et al., 2004); details: in vivo; clofazimine 20 mg dose; read-out: Cmax, literature value scaled to dose of the study
[7] = clofazimine 200 mg dose, fed (Nix et al., 2004); cited from earlier work
[8] = clarithromycin, geometric mean ratio dry/PEG formulation of triple combination capsules
[9] = 25-O-desacetylrifabutin, geometric mean ratio dry/PEG formulation of triple combination capsules
[10] = rifabutin, geometric mean ratio dry/PEG formulation of triple combination capsules
[11] = clofazimine, geometric mean ratio dry/PEG formulation of triple combination capsules

Cmax [2]: 593 ng/mL
Relative bioavailability, Ratio of Means, AUC0-inf [3, 8]: 80.78%
Relative bioavailability, Ratio of Means, AUC0-t [3, 8]: 80.34%
Relative bioavailability, Ratio of Means, Cmax [3, 8]: 75.03%
Compound: CC[C@H]1OC(=O)[C@H](C)[C@@H](O[C@H]2C[C@@](C)(OC)[C@@H](O)[C@H](C)O2)[C@H](C)[C@@H](O[C@@H]2O[C@H](C)C[C@H](N(C)C)[C@H]2O)[C@](C)(OC)C[C@@H](C)C(=O)[C@H](C)[C@@H](O)[C@]1(C)O [CLARITHROMYCIN, clarithromycin]
Cmax [1]: 780 ± 250 ng/mL

Compound: 25-O-desacetylrifabutin [25-0-DESACETYLRIFABUTIN]
Relative bioavailability, Ratio of Means, AUC0-t [3, 9]: 73.95%
Relative bioavailability, Ratio of Means, Cmax [3, 9]: 73.43%
Relative bioavailability, Ratio of Means, AUC0-inf ([3]; 25-O-desacetylrifabutin, geometric mean ratio dry/PEG formulation, approximately 65% of subjects excluded): 86.06%

Cmax [5]: 102 ng/mL
Relative bioavailability, Ratio of Means, AUC0-inf [3, 10]: 73.23%
Relative bioavailability, Ratio of Means, AUC0-t [3, 10]: 77.00%
Relative bioavailability, Ratio of Means, Cmax [3, 10]: 88.74%
Compound: CO[C@H]1/C=C/O[C@@]2(C)Oc3c(C)c(O)c4c(c3C2=O)C2=NC3(CCN(CC(C)C)CC3)NC2=C(NC(=O)/C(C)=C\C=C\[C@H](C)[C@H](O)[C@@H](C)[C@@H](O)[C@@H](C)[C@H](OC(C)=O)[C@@H]1C)C4=O [RIFABUTIN, rifabutin]
Cmax (peak concentration) [4]: 340 ± 140 ng/mL

Cmax [6]: 23 ng/mL
Relative bioavailability, Ratio of Means, AUC0-t [3, 11]: 102.38%
Relative bioavailability, Ratio of Means, Cmax [3, 11]: 118.63%
Relative bioavailability, Ratio of Means, AUC0-t ([3]; clofazimine, geometric mean ratio dry/PEG formulation of triple combination capsules, listed as clofazimine): 102%
Relative bioavailability, Ratio of Means, AUC0-inf ([3]; clofazimine, geometric mean ratio dry/PEG formulation, approximately 50% (A) and 75% (B) of subjects excluded): 120.52%
Compound: CC(C)/N=c1\cc2n(-c3ccc(Cl)cc3)c3ccccc3nc-2cc1Nc1ccc(Cl)cc1 [CLOFAZIMINE, clofazimine]
Cmax [7]: 227 ng/mL
